The target of experiment [1] is T1, human CYP11B1 (Homo sapiens, UniProt P15538).
T1 construct: expressed in transfected cells
T1 sequence (P15538 25-503): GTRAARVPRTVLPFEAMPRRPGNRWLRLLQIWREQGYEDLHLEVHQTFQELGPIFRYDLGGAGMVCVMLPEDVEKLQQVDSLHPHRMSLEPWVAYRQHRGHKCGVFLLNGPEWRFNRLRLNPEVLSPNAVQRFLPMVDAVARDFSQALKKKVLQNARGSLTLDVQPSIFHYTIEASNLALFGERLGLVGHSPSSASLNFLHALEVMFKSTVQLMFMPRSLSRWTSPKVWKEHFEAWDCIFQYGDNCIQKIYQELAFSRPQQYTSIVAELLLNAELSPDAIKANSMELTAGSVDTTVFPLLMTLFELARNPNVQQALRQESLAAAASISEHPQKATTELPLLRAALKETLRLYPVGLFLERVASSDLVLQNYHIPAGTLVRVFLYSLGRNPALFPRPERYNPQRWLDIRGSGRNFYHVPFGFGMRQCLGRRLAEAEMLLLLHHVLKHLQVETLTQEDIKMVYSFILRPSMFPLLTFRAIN
Nature of the experiment: G-402 cellular enzyme assay, human CYP11B1 (cortisol release, HTRF). It counts as cell-based. Conditions: G-402 cells, 1 μM Deoxycortisol. An excerpt: Herein we identified the use of the G-402 cell line as a host cell to ectopically express (transiently or stably) enzymes of the CYP11 family. Specifically we developed stable G-402 cells expressing ectopically human CYP11B1, human CYP11B2, human CYP11A1, cynmolgus CYP11B1 or cynomolgus CYP11B2 enzyme activity. Importantly the identified cell line G-402 expresses co-factors (adrenodoxin and adrenodoxin reductase) important for the activity of the CYP11 family and no relevant enzyme activity of the CYP11 family (in comparison to H295R cells) was detected in these cells. Therefore the G-402 cell line is uniquely suited as a host cell for the ectopic expression of enzymes from the CYP11 family.
G-402 cells can be obtained from ATCC(CRL-1440) and were originally derived from a renal leiomyoblastoma.
The expression plasmids contain the ORF for either human/cyno CYP11B1 or CYP11B2 under the control of a suitable promoter (CMV-promoter) and a suitable resistance marker (neomycin). Using standard techniques the expression plasmid is transfected into G-402 cells and these cells are then selected for expressing the given resistance markers. Individual cell-clones are then selected and assessed for displaying the desired enzymatic activity using 11-Deoxycorticosterone (Cyp11B2) or 11-Deoxycortisol (Cyp11B1) as a substrate.
G-402 cells expressing CYP11 constructs were established as described above and maintained in McCoy's 5a Medium Modified, ATCC Catalog No. 30-2007 containing 10% FCS and 400 μg/ml G418 (Geneticin) at 37° C. under an atmosphere of 5% CO2/95% air.
Cellular enzyme assays were performed in DMEM/F12 medium containing 2.5% charcoal treated FCS and appropriate concentration of substrate (0.3-10 uM 11-Deoxycorticosterone, 11-Deoxycortisol or Corticosterone). For assaying enzymatic activity, cells were plated onto 96 well plates and incubated for 16 h. An aliquot of the supernatant is then transferred and analyzed for the concentration of the expected product (Aldosterone for CYP11B2; Cortisol for CYP11B1). The concentrations of these steroids can be determined using HTRF assays from CisBio analyzing either Aldosterone or Cortisol.
Inhibition of the release of produced steroids can be used as a measure of the respective enzyme inhibition by test compounds added during the cellular enzyme assay. The dose dependent inhibition of enzymatic activity by a compound is calculated by means of plotting added inhibitor concentrations (x-axes) vs. measured steroid/product level (y-axes). The inhibition is then calculated by fitting the following 4-parameter sigmoidal function (Morgan-Mercer-Flodin (MMF) model) to the raw data points using the least squares method:
[formula] wherein, A is the maximum y value, B is the EC50 factor determined using XLFit, C is the minimum y value and D is the slope value.
EC50 values for compounds claimed herein were tested with the G402-based assay system described. Cyp11B2 enzyme activity was tested in presence of 1 μM Deoxycorticosterone and variable amounts of inhibitors; Cyp11B1 enzyme activity was tested in presence of 1 μM Deoxycortisol and variable amounts of inhibitors.
For orientation: Time-resolved FRET reads energy transfer from a long-lived donor to a nearby acceptor.

Experiment [2] deals with T2, human CYP11B2 (Homo sapiens, UniProt P19099).
T2 construct: expressed in transfected cells
T2 sequence (P19099 25-503): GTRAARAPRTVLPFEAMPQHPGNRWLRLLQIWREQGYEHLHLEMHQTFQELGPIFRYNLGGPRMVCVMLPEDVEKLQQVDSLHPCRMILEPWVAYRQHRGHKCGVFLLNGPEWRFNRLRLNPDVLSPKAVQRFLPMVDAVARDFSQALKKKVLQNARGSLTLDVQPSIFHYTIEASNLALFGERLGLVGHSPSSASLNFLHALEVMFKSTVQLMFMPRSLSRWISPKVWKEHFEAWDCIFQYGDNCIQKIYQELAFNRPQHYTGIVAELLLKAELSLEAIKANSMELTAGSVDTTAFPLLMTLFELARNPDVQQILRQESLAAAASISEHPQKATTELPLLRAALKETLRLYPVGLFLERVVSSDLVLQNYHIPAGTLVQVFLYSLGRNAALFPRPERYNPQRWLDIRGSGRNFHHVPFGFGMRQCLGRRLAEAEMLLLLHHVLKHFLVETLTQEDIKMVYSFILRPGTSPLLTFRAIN
The experiment can be described thus: G-402 cellular enzyme assay, human CYP11B2 (aldosterone release, HTRF). It counts as cell-based. Conditions: G-402 cells, 1 μM Deoxycorticosterone. The essentials: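 Inhibition of steroid release was taken as enzyme inhibition. CYP11B1 assays used 1 μM deoxycortisol with cortisol detection, CYP11B2 assays 1 μM deoxycorticosterone with aldosterone detection, both by HTRF after 16 h in stable G-402 cells; EC50 from least-squares MMF fit.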

Results on 21 compounds are retold here after patent US9133158B2, “Bicyclic dihydroisoquinoline-1-one derivatives” (Hoffmann-La Roche Inc., priority 2011, dated 2015).

Usually EC50 stands for the concentration needed to bring the measured effect to its halfway point. A lower EC50 goes with an effect from little substance.

As to `CC1(C)c2cc(Cl)ccc2C(=O)N1c1cncc(Cn2ccc(N)n2)c1` [Example 380, 2-[5-(3-Amino-pyrazol-1-ylmethyl)-pyridin-3-yl]-5-chloro-3,3-dimethyl-2,3-dihydro-isoindol-1-one], the EC50 in experiment [1] worked out at 2420 nM; in experiment [2], 36.6 nM.
`Cc1ccncc1N1C(=O)c2ccc(Cl)cc2C1C` (stereo not drawn) [Example 121, 5-Chloro-3-methyl-2-(4-methyl-pyridin-3-yl)-2,3-dihydro-isoindol-1-one]: the EC50 was 39 nM in experiment [1] and 7.1 nM in experiment [2].
Regarding `O=C1c2ccc(Cl)cc2CN1c1cncc(N2CCC[C@H]2CO)c1` [Example 136, 5-Chloro-2-[5-((S)-2-hydroxymethyl-pyrrolidin-1-yl)-pyridin-3-yl]-2,3-dihydro-isoindol-1-one], the EC50 in experiment [1] came out at 2660 nM; in experiment [2], 102 nM.
For `NC(=O)COc1cncc(N2CCc3cc(Cl)ccc3C2=O)c1` [Example 253, 2-[5-(6-Chloro-1-oxo-3,4-dihydro-1H-isoquinolin-2-yl)-pyridin-3-yloxy]-acetamide], in that order: 10000 nM and 581 nM.
`Cc1ncn(C)c1-c1cncc(N2CCc3cc(Cl)ccc3C2=O)c1` [Example 80, 6-Chloro-2-[5-(3,5-dimethyl-3H-imidazol-4-yl)-pyridin-3-yl]-3,4-dihydro-2H-isoquinolin-1-one]: the results for the EC50 in experiment [1] and in experiment [2] were 58.1 nM and 4.7 nM, respectively.
With `CC1(C)c2cc(Cl)ccc2C(=O)N1c1cncc(CNc2cc[nH]n2)c1` [Example 381, 5-Chloro-3,3-dimethyl-2-{5-[(1H-pyrazol-3-ylamino)-methyl]-pyridin-3-yl}-2,3-dihydro-isoindol-1-one], the EC50 in experiment [1] worked out at 138 nM; in experiment [2], 3.4 nM.
With `CN(Cc1cncc(N2C(=O)c3ccc(Cl)cc3C2(C)C)c1)S(C)(=O)=O` [Example 392, N-[5-(6-Chloro-1,1-dimethyl-3-oxo-1,3-dihydro-isoindol-2-yl)-pyridin-3-ylmethyl]-N-methyl-methane-sulfonamide], the 50% effective concentration (EC50) is 327 nM in experiment [1] and 9.2 nM in experiment [2].
For `Cc1c(-c2cncc(N3CCc4cc(Cl)ccc4C3=O)c2)ncn1C` [Example 417, 6-Chloro-2-[5-(1,5-dimethyl-1H-imidazol-4-yl)-pyridin-3-yl]-3,4-dihydro-2H-isoquinolin-1-one], the figures for the EC50 in experiment [1] and in experiment [2] were 9090 nM and 224 nM, respectively.
For the compound `O=C1c2ccc(Cl)cc2CCN1c1cncc(Cc2cccc(F)c2F)c1` [Example 210], the concentration for a half-maximal effect (EC50) is 130 nM in experiment [1] and 18.6 nM in experiment [2].
For `CCS(=O)(=O)N(C)Cc1cncc(N2C(=O)c3ccc(F)cc3C23CC3)c1` [Example 394, N-{[5-(6′-Fluoro-3′-oxospiro [cyclopropane-1,1′-isoindol]-2′(3′H)-yl)pyridin-3-yl]methyl}-N-methylethane-sulfonamide], in that order: 2920 nM and 45.6 nM.
In the case of `CC1(C)c2cc(Cl)ccc2C(=O)N1c1cncc(N2CC[C@H](O)C2)c1` [Example 454, 5-Chloro-2-[5-((S)-3-hydroxy-pyrrolidin-1-yl)-pyridin-3-yl]-3,3-dimethyl-2,3-dihydro-isoindol-1-one], the EC50 in experiment [1] worked out at 62 nM; in experiment [2] it was 6.6 nM.
For `CC1(C)c2cc(Cl)ccc2C(=O)N1c1cncc(CNS(C)(=O)=O)c1` [Example 391, N-[5-(6-Chloro-1,1-dimethyl-3-oxo-1,3-dihydro-isoindol-2-yl)-pyridin-3-ylmethyl]-methane-sulfonamide], in that order: 1450 nM and 29.7 nM.
For `O=C1c2ccc(Cl)cc2CCN1c1cccnc1` [Example 1, 6-Chloro-2-pyridin-3-yl-3,4-dihydro-2H-isoquinolin-1-one], in that order: 4610 nM and 86 nM.
As to `Cc1noc(C)c1-c1cncc(N2CCc3cc(Cl)ccc3C2=O)c1` [Example 230, 6-Chloro-2-[5-(3,5-dimethyl-isoxazol-4-yl)-pyridin-3-yl]-3,4-dihydro-2H-isoquinolin-1-one], the EC50 was found to be 149 nM in experiment [1] and 7 nM in experiment [2].
Consider `Cc1ccc(Cc2cncc(N3CCc4cc(Cl)ccc4C3=O)c2)cn1` [Example 206, 6-Chloro-2-[5-(6-methyl-pyridin-3-ylmethyl)-pyridin-3-yl]-3,4-dihydro-2H-isoquinolin-1-one], for which the EC50 in experiment [1] was found to be 6.8 nM; in experiment [2] it was 1.7 nM.
Take `CCS(=O)(=O)N1CC[C@@H](Oc2cncc(N3C(=O)c4ccc(Cl)cc4C3(C)C)c2)C1` [Example 447, 5-Chloro-2-[5-((R)-1-ethanesulfonyl-pyrrolidin-3-yloxy)-pyridin-3-yl]-3,3-dimethyl-2,3-dihydro-isoindol-1-one]: the EC50 in experiment [1] was determined as 233 nM; in experiment [2], 1.9 nM.
As to `Cn1cc(Cc2cncc(N3CCc4cc(Cl)ccc4C3=O)c2)cn1` [Example 209, 6-Chloro-2-[5-(1-methyl-1H-pyrazol-4-ylmethyl)-pyridin-3-yl]-3,4-dihydro-2H-isoquinolin-1-one], the EC50 in experiment [1] turned out to be 14.7 nM; in experiment [2], 0.9 nM.
Take `O=C1c2ccc(Cl)cc2CCN1c1cncc(NS(=O)(=O)C2CC2)c1` [Example 221, Cyclopropanesulfonic acid [5-(6-chloro-1-oxo-3,4-dihydro-1H-isoquinolin-2-yl)-pyridin-3-yl]-amide]: the EC50 worked out at 10100 nM in experiment [1] and 2160 nM in experiment [2].
For `O=C1CCCN1Cc1cncc(N2Cc3cc(Cl)ccc3C2=O)c1` [Example 112, 5-Chloro-2-[5-(2-oxo-pyrrolidin-1-ylmethyl)-pyridin-3-yl]-2,3-dihydro-isoindol-1-one], the EC50 in experiment [1] is 12000 nM; in experiment [2] it was 674 nM.
Consider `CC1(C)c2cc(Cl)ccc2C(=O)N1c1cncc(CN2CCCCS2(=O)=O)c1` [Example 415, 5-Chloro-2-[5-(1,1-dioxo-1λ6-[1,2]thiazinan-2-ylmethyl)-pyridin-3-yl]-3,3-dimethyl-2,3-dihydro-isoindol-1-one], for which the EC50 in experiment [1] came to 484 nM; in experiment [2], 5.5 nM.
Turning to `O=C(Nc1cncc(N2CCc3cc(Cl)ccc3C2=O)c1)Nc1cccc(C(F)(F)F)c1` [Example 251, 1-[5-(6-Chloro-1-oxo-3,4-dihydro-1H-isoquinolin-2-yl)-pyridin-3-yl]-3-(3-trifluoromethyl-phenyl)-urea], the EC50 in experiment [1] amounted to 15800 nM; in experiment [2] it was 5880 nM.
